In patent US8461209B2, “Malonic acid sulfonamide derivative and pharmaceutical use thereof” (Mitsubishi Tanabe Pharma Corporation, priority 2007, dated 2013):

Molecular target: T1, human recombinant AT2 receptor (Homo sapiens, UniProt P50052)
T1 construct: purchased PerkinElmer 6110538; host or cells: HeLa cells
T1 sequence (P50052 1-363): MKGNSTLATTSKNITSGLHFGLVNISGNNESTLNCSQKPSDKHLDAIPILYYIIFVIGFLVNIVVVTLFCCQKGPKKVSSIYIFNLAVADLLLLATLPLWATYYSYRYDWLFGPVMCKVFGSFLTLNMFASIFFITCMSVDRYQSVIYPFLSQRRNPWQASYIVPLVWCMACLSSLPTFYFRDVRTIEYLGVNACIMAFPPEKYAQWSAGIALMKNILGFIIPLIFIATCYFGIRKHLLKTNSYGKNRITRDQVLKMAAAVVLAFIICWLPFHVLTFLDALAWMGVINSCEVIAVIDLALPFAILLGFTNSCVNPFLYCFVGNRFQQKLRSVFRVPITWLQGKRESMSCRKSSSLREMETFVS
Assay: Affinity for AT2 receptor (receptor binding assay)
Settings: membrane fraction from HeLa cells expressing human recombinant AT2 receptor; 125I-[Sar1, Ile8]-Ang II 0.1 nmol/L
Method: Using a commercially available receptor membrane fraction (PerkinElmer, Cat No. 6110538) obtained from HeLa cells expressing human recombinant AT2 receptor, a receptor binding assay was performed. ^125I-[Sar^1, Ile^8]-Ang II (0.8 kBq, final concentration 0.1 nmol/L) and various concentrations of the compound of the present invention were added to a solution of 50 mmol/L Tris-HCl (pH 7.4), 125 mmol/L NaCl, 6.5 mmol/L MgCl2 and 1 mmol/L EDTA containing the receptor membrane fraction, and the mixture was incubated at room temperature for 90 min. Bound or free ^125I-[Sar^1, Ile^8]-Ang II was separated with a glass fiber filter (Millipore, MultiScreen FB Plate), and the radioactivity of ^125I-[Sar^1, Ile^8]-Ang II bound to the receptor was determined. […] On the other hand, Kd value of ^125I-[Sar^i, Ile^8]-Ang II for AT2 receptor in the absence of the compound of the present invention was determined by Scatchard analysis. Using the IC50 value obtained from the concentration-response curve and the Kd value of ^125I-[Sar^1, Ile^8]-Ang II, the Ki value of the compound of the present invention was calculated and used as an index of the affinity for AT2 receptor.

Row | Compound | Ki [nM]
1 | CCN(CC)C(=O)[C@H](Cc1ccc(NC(=O)c2ccccn2)cc1)C(=O)NS(=O)(=O)c1ccc2ccccc2c1 [Example 101, (2S)—N,N-diethyl-N′-(2-naphthylsulfonyl)-2-{4-[(2-pyridylcarbonyl)amino]benzyl}malonamide] | 16
2 | CCN(CC)C(=O)C(Cc1ccc(NC(=O)c2c(F)cccc2F)cc1)C(=O)NS(=O)(=O)c1ccc2ccccc2c1 (stereo not shown) [Example 22, N,N-diethyl-2-{4-[(2,6-difluorobenzoyl)amino]benzyl}-N′-(2-naphthylsulfonyl)malonamide] | 8
3 | CCN(CC)C(=O)C(CCCc1ccc(N)cc1)C(=O)NS(=O)(=O)c1ccc2ccccc2c1 (stereo not shown) [Example 147, 2-[3-(4-aminophenyl)propyl]-N,N-diethyl-N′-(2-naphthylsulfonyl)malonamide] | 34
4 | CCN(CC)C(=O)C(Cc1ccc(NC(=O)Oc2ccccc2)cc1)C(=O)NS(=O)(=O)c1ccc2ccccc2c1 (stereo not shown) [Example 87, N,N-diethyl-N′-(2-naphthylsulfonyl)-2-[4-(phenoxycarbonylamino)benzyl]malonamide] | 23
5 | CCN(C(=O)C(CC(=O)N1CCc2ccccc2C1)C(=O)NS(=O)(=O)/C=C/c1ccccc1)c1ccccc1 (stereo not shown) [Example 441, 2-[2-(3,4-dihydroisoquinolin-2(1H)-yl)-2-oxoethyl]-N-ethyl-N-phenyl-N′-((E)-styrylsulfonyl)malonamide] | 11
6 | CCN(CC)C(=O)[C@H](Cc1ccc(NC(=O)c2cc(F)ccc2N)cc1)C(=O)NS(=O)(=O)c1ccc2ccccc2c1 [Example 99, (2S)-2-{4-[(2-amino-5-fluorobenzoyl)amino]benzyl}-N,N-diethyl-N′-(2-naphthylsulfonyl)malonamide] | 0.9
7 | C=CCC(C(=O)NS(=O)(=O)/C=C/c1ccccc1)C(=O)N(CC)c1cccc(C(F)(F)F)c1 (stereo not shown) [Example 475, 2-allyl-N-ethyl-N′-((E)-styrylsulfonyl)-N-(3-trifluoromethylphenyl)malonamide] | 13
8 | CCN(C(=O)C(Cc1cnn(Cc2ccccc2)c1)C(=O)NS(=O)(=O)/C=C/c1ccccc1)c1ccccc1 (stereo not shown) [Example 371, 2-[(1-benzyl-1H-pyrazol-4-yl)methyl]-N-ethyl-N-phenyl-N′-((E)-styrylsulfonyl)malonamide] | 12
9 | CC(C)N(C(=O)C(CC1CC1)C(=O)NS(=O)(=O)CCc1ccccc1)c1ccc(F)cc1 (stereo not shown) [Example 529, 2-cyclopropylmethyl-N-(4-fluorophenyl)-N-isopropyl-N′-phenethylsulfonylmalonamide] | 10
10 | CC(C)CC(C(=O)NS(=O)(=O)CCc1ccccc1)C(=O)N(c1ccc(F)cc1)C(C)C (stereo not shown) [Example 493, N-(4-fluorophenyl)-2-isobutyl-N-isopropyl-N′-phenethylsulfonylmalonamide] | 5.2
11 | CC(C)N(C(=O)C(CC1CC1)C(=O)NS(=O)(=O)/C=C/c1ccccc1)c1ccc(F)cc1 (single isomer, unassigned) [Example 516, (2S or 2R)-2-cyclopropylmethyl-N-(4-fluorophenyl)-N-isopropyl-N′-((E)-2-styrylsulfonyl)malonamide] | 6.1
12 | CCN(CC)C(=O)[C@H](Cc1ccc(NC(=O)c2ccccc2)cc1)C(=O)NS(=O)(=O)c1ccc2ccccc2c1 [Example 92, (2S)-2-[4-(benzoylamino)benzyl]-N,N-diethyl-N′-(2-naphthylsulfonyl)malonamide] | 2.3
13 | CC(C)CC(C(=O)NS(=O)(=O)c1ccc2ccccc2c1)C(=O)N(c1ccc(F)cc1)C(C)C (stereo not shown) [Example 495, N-(4-fluorophenyl)-2-isobutyl-N-isopropyl-N′-(2-naphthylsulfonyl)malonamide] | 8.4
14 | CCN(CC)C(=O)[C@H](Cc1ccc(NC(=O)c2cc(F)c(F)cc2N)cc1)C(=O)NS(=O)(=O)c1ccc2ccccc2c1 [Example 106, (2S)-2-{4-[(2-amino-4,5-difluorobenzoyl)amino]benzyl}-N,N-diethyl-N′-(2-naphthylsulfonyl)malonamide] | 1.6
15 | CCN(CC)C(=O)[C@H](Cc1ccc(NC(=O)c2ccccc2N)cc1)C(=O)NS(=O)(=O)c1ccc2ccccc2c1 [Example 104, (2S)-2-{4-[(2-aminobenzoyl)amino]benzyl}-N,N-diethyl-N′-(2-naphthylsulfonyl)malonamide] | 3.3
16 | CCN(CC)C(=O)[C@H](Cc1ccc(NC(=O)c2ccc(F)cc2N)cc1)C(=O)NS(=O)(=O)c1ccc2ccccc2c1 [Example 107, (2S)-2-{4-[(2-amino-4-fluorobenzoyl)amino]benzyl}-N,N-diethyl-N′-(2-naphthylsulfonyl)malonamide] | 1.6
17 | CC(C)CC(C(=O)NS(=O)(=O)/C=C/c1ccccc1)C(=O)N(c1ccc(F)cc1)C(C)C (stereo not shown) [Example 491, N-(4-fluorophenyl)-2-isobutyl-N-isopropyl-N′-((E)-styrylsulfonyl)malonamide] | 9.2
18 | CC(C)N(C(=O)C(Cc1ccc(F)cc1)C(=O)NS(=O)(=O)/C=C/c1ccccc1)c1cccnc1 (stereo not shown) [Example 322, 2-(4-fluorobenzyl)-N-isopropyl-N-(3-pyridyl)-N′-((E)-styrylsulfonyl)malonamide] | 6.4
19 | C=CCC(C(=O)NS(=O)(=O)/C=C/c1ccccc1)C(=O)N(c1ccc(F)cc1)C(C)C (stereo not shown) [Example 481, 2-allyl-N-(4-fluorophenyl)-N-isopropyl-N′-((E)-styrylsulfonyl)malonamide] | 9
20 | CCN(CC)C(=O)[C@H](Cc1ccc(NC(=O)c2cc(C)ccc2N)cc1)C(=O)NS(=O)(=O)c1ccc2ccccc2c1 [Example 108, (2S)-2-{4-[(2-amino-5-methylbenzoyl)amino]benzyl}-N,N-diethyl-N′-(2-naphthylsulfonyl)malonamide] | 9.7
21 | CCN(CC)C(=O)[C@H](Cc1ccc(NC(=O)c2cc(Cl)ccc2N)cc1)C(=O)NS(=O)(=O)c1ccc2ccccc2c1 [Example 105, (2S)-2-{4-[(2-amino-5-chlorobenzoyl)amino]benzyl}-N,N-diethyl-N′-(2-naphthylsulfonyl)malonamide] | 5.4
22 | CC(C)CC(C(=O)NS(=O)(=O)CCCOc1ccccc1)C(=O)N(c1ccc(F)cc1)C(C)C (stereo not shown) [Example 496, N-(4-fluorophenyl)-2-isobutyl-N-isopropyl-N′-(3-phenoxypropylsulfonyl)malonamide] | 12
23 | CCN(CC)C(=O)[C@H](Cc1ccc(NC(=O)c2c(N)cccc2F)cc1)C(=O)NS(=O)(=O)c1ccc2ccccc2c1 [Example 100, (2S)-2-{4-[(2-amino-6-fluorobenzoyl)amino]benzyl}-N,N-diethyl-N′-(2-naphthylsulfonyl)malonamide] | 1.8
24 | CCN(CC)C(=O)[C@H](Cc1ccc(NC(=O)c2ccc(Cl)cc2N)cc1)C(=O)NS(=O)(=O)c1ccc2ccccc2c1 [Example 103, (2S)-2-{4-[(2-amino-4-chlorobenzoyl)amino]benzyl}-N,N-diethyl-N′-(2-naphthylsulfonyl)malonamide] | 3.2
25 | CC(C)N(C(=O)C(CC1CC1)C(=O)NS(=O)(=O)c1ccc2ccccc2c1)c1ccc(F)cc1 (stereo not shown) [Example 530, 2-cyclopropylmethyl-N-(4-fluorophenyl)-N-isopropyl-N′-(2-naphthylsulfonyl)malonamide] | 13
